Read-outs that look alike come from different tables or passages of the source.

Series [1] deals with benzodiazepine receptor. The series is described as follows: Competitive inhibition of 3H-flunitrazepam binding to benzodiazepine receptor (cerebral cortical membranes). Also on record: species or system bovine. The method, then: (Competitive inhibition of H^3 -flunitrazepam to benzodiazepine receptor)
Binding of 3H-flunitrazepam (0.7 nM) to the benzodiazepine receptor was carried out in extensively washed cerebral cortical membranes.
H^3 -flunitrazepam has a Ki of […] to the benzodiazepine receptor.
IC50 values were obtained using flavonoids at different concentrations (10^-10 to 10^-3 M).
Structure - activity relationships of several flavonoids on
the ^3 H Flunitrazepam binding to bovine brain membranes.

Series [2] deals with benzodiazepine receptors. The conditions noted are these: Medina et al. 1990; cited from earlier work.
Series [3] has as its system locus coeruleus noradrenaline. Put plainly: Noradrenaline levels in locus coeruleus after immobilization stress. It is filed as in vivo, rats. The conditions noted are these: 1 mg/kg i.p., 30 min before 90-min stress session. How it is done:
Rats were submitted to a 90-minute immobilization stress session in a plastic cylinder. The locus coeruleus was dissected out after killing by decapitation and noradrenaline assessed by HPLC with electrochemical detection. Doses were 1 mg/kg for each substance, injected i.p., 30 minutes before the stress session.

Series [4] deals with mice. The series is described as follows: Locomotor activity test (OPTO-VARIMEX). Particulars: 0.6-1 mg/kg i.p., 20 min after injection. How it is done: Male CF1 mice from our breeding stock weighing 28-35 g were used. The animals were placed in groups of 10-12 with free access to water and food, and maintained on a 12 h/12 h day-night cycle.
Diazepam (DZ; Hoffman-La Roche) and the flavonoids were dissolved in DMSO 40%, NaOH 0.1N (7:3: v/v) at pH 8.2 Control animals were injected with the same vehicle (VEH). RO 15-1788 (Hoffmann-La Roche) was suspended in DMSO 10%, propyleneglycol 10% in distilled water.
(c) Locomotor Activity Test: we used an OPTO-VARIMEX apparatus consisting of a glass box (36×15×20 cm) and two lateral bars with 15 light beams (0.32 cm diameter, beam spacing 2.65 cm). The apparatus detects automatically all the mouse movements, and discriminates between total and ambulatory activity. The locomotor activity (number of movements across the beams) was counted during 5 min. An increase in the number of transitions through the beams reflects an augmented locomotor activity.
The general procedure for all the tests is as follows: mice were injected with vehicle or the drug solution 20 min before the beginning of the test and put into another home cage. Ro 15-1788, a specific BZD receptor antagonist was injected 10 min before the tested drug. All the injections were given intraperitoneally (i.p.). Control mice were tested in each session, in parallel with those animals receiving the test drug or diazepam. Testing was carried out `blind`. All data were submitted to analysis of variance (ANOVA). Post-hoc comparisons between individual treatments and controls were made using Dunnett's t-test.
FIGS. 15, 16, 17 and 18 show ambulatory locomoter activity counts during a 5 min. test session in an OPTO-Varimex apparatus, 20 min. after i.p. injection with a mixture of brominated flavones (0.6,1,3 mg/kg), FIG. 15; 2' chlorinated chrysin (1,3 mg/kg); FIG. 16; 2' fluorinated chrysin (3 mg/kg), FIG. 17; 6,8 dibromoflavone, FIG. 18. Data are expressed as medians (interquartile range) of (n) number of animals.

The conditions of series [5]: Medina et al. 1990; cited from earlier work.
The subject of series [6] is mice. Put plainly: Holeboard test (exploratory activity, sedation). Format: in vivo, mice (male CF1). The method, then: (b) Holeboard Test: consisted of a wood box (60×60×30 cm) with four 2 cm diameter holes equidistant in the floor. The number of head-dips and the time spent head-dipping were counted during 5 min. An increase in the number and the time spent head-dipping implies a greater exploratory activity.
(§1) All the injections were given intraperitoneally (i.p.). […] Testing was carried out `blind`. All data were submitted to analysis of variance (ANOVA).

Series [7] has as its system mice. Put plainly: Elevated plus maze (anxiety). It is filed as in vivo, mice (male CF1). The conditions noted are these: for Total arm entries: 5 min test, mean ± S.E.M. The method, then:
(a) Elevated Plus Maze: consisted of 4 perpendicularly disposed wood arms (20×5 cm; two had 35 cm high wood walls, and two were open) linked by a central 10×10 cm square. The maze was suspended 50 cm from the room floor. Animals were placed on the central part of the maze facing a closed arm. This test has been widely validated to measure anxiety in rodents. The number of entries into and the time spent in the open and closed arms were counted during 5 min. […] Total exploratory activity (number of entries in both arms) was also determined.
as §1

For series [8], the system named is mice. The series is described as follows: Horizontal wire test (muscle relaxation). It is filed as in vivo, mice (male CF1). How it is done: (d) Horizontal Wire Test: It consisted of an horizontally strung wire (1 mm diameter, 15 cm long), placed at 20 cm from the table. Mice were lifted by the tail, allowed to grasp the wire with their forepaws and released. […] After two trials, performed at 5 min. intervals, the test took place. A myorelaxant drug, like diazepam at high doses, will impair the ability of mice to grasp the wire. Generally, this state of muscle relaxation is commonly associated with sedation.
as §1
The test took place after two trials, executed after a 5 min interval.

The mark [9] stands for this setting: 1 mg/kg i.p., 20 min after injection.

A word on the IC50: it is the concentration that inhibits the measured activity by half. In the case of `O=c1cc(-c2ccccc2)oc2cc(O)cc(O)c12` [chrysin, 5,7-dihydroxyflavone], the “Benzodiazepine ligand behaviour / affinity relative to 3H-flunitrazepam” value in series [1] is given as “benzodiazepine ligand behaviour similar to that of ^3 H-flunitrazepam”. For the same molecule, the IC50 in series [1] (3H-flunitrazepam 0.7 nM, read-out: IC50 at the benzodiazepine receptor) is 0.7 to 3 µM; in series [1] (bovine brain membranes, 0.7 nM 3H-flunitrazepam, read-out: 3H Flunitrazepam binding IC50), 2 µM. In series [2], the “Binding properties for benzodiazepine receptors” value is given as “binding properties for benzodiazepine receptors”. The “Noradrenaline decrease in locus coeruleus provoked by immobilization stress” value in series [3] is recorded as “dampened the noradrenaline decrease”. Also, the “Potency vs diazepam on stress-provoked noradrenaline decrease” value in series [3] is “almost equipotent with diazepam”. Besides, the Locomotor activity result in series [4] is “significant increase in locomotor activity”. The Anticonvulsant properties result in series [5] is listed as “anticonvulsant properties”. Moreover, the Time spent head-dipping entry in series [6] (3 mg/kg i.p.) was “significant increase in the time spent head-dipping”. Moreover, the Sedative effects entry in series [6] (10 mg/kg i.p.) is recorded as “did not elicit sedative effects”. Further, in series [6] (i.p.), the “Sedation (summary)” value was “did not exhibit sedation”. Also, the “Percentage of entries in the open arms” value in series [7] (setting [9]) was “increase in both parameters (p<0.01)”. Also, in series [7] (setting [9]), the “Percentage of the time spent on the open arms” value is “increase in both parameters (p<0.01)”. Further, the Total arm entries came to 9.9 ± 0.8 in series [7] (setting [9]); 8.7 ± 1.1 in series [7] (3 mg/kg i.p., 20 min after injection); 10.2 ± 1.1 in series [7] (10 mg/kg i.p., 20 min after injection). Moreover, the “Total arm entries, with and without RO 15-1788” value in series [7] (chrysin 1 mg/kg, RO 15-1788 3 mg/kg, F (2,49)=3.18) is on record as “No significant differences were found”. Besides, the “Anxiolytic effect in the elevated plus maze” value in series [7] (i.p.) is recorded as “had anxiolytic effects”; in series [7] (i.p., listed as CHRY), “displayed an anxiolytic effect”. Also, in series [7] (i.p., doses of Table I), the “Total arm entries, difference from controls” value is “No differences were observed”. Also, the “Effect in horizontal wire test / muscle relaxant effect” value in series [8] (0.6-30 mg/kg i.p.) is “ineffective in the same test and produced no muscle relaxant effect”. Besides, the “Muscle relaxation (summary)” value in series [8] (i.p.) is “did not exhibit sedation or muscle relaxation”.

The record behind these values is US5756538A, “Flavonoid and biflavonoid derivatives, their pharmaceutical compositions, their anxiolytic activity” (University of Strathclyde, priority 1993, dated 1998).
